# In patent US20250144067A1, “PERSONALIZED STARVATION THERAPY FOR CANCER” (Faeth Therapeutics, Inc., priority 2021, published 2025):
# Where a name gives a salt, the structure may show the parent alone.
# Legend:
# [1] = test system: NCI-H292 lung cancer cells; assay: FDA drug screening, complete media vs cholesterol-free media without statin (TABLE 1); type: cell-based, human
# [2] = test system: NCI-H292 lung cancer cells; assay: FDA drug screening, complete media vs cholesterol-free media with simvastatin (TABLE 2); type: cell-based, human; settings: for Cholesterol-free media + simvastatin (0.04 μM) / Complete Media: NCI-H292 cells
# [3] = Complete minus Cholesterol-free, >0 enhanced anti-cancer activity, about 0 neutral, <0 antagonist
# [4] = NCI-H292 cells, cholesterol-free media without statin, FDA drug library screen
# [5] = NCI-H292 cells, complete media, FDA drug library screen
# [6] = FDA library drug in cholesterol-free media with simvastatin 0.04 μM
# [7] = FDA library drug in complete media
# [8] = complete media vs cholesterol-free media + simvastatin (0.04 μM), >0 enhanced anti-cancer activity, about 0 neutral, <0 antagonist
# [9] = NCI-H292 cells, cholesterol-free media without statin
# [10] = drug in cholesterol-free media with simvastatin 0.04 μM
# [11] = complete vs cholesterol-free media, >0 enhanced anti-cancer activity, about 0 neutral, <0 antagonist
# [12] = cholesterol-free media with simvastatin 0.04 μM, cell growth value in FDA drug screen
# [13] = complete media, cell growth value in FDA drug screen
# [14] = complete media minus cholesterol-free media + simvastatin, >0 enhanced anti-cancer activity, about 0 neutral, <0 antagonist
# [15] = FDA drug library screen, cholesterol-free media with simvastatin 0.04 μM
# [16] = FDA drug library screen, complete media
# [17] = complete vs cholesterol-free media, […]
# [18] = complete media minus cholesterol-free media + simvastatin (0.04 μM), […]
# [19] = complete vs cholesterol-free media, greater than 0 enhanced anti-cancer activity, about 0 neutral, below 0 antagonists
# [20] = cholesterol-free media with simvastatin 0.04 μM, FDA drug library screen (TABLE 2)
# [21] = complete media, FDA drug library screen (TABLE 2)
# [22] = Complete minus Cholesterol-free, greater than 0 enhanced anti-cancer activity, about 0 neutral, below 0 antagonist
# [23] = NCI-H292 cells, FDA drug library screen, cholesterol-free media without statin
# [24] = NCI-H292 cells, FDA drug library screen, complete media
smiles,measurement,setting,value
CCc1cc(/C(C)=N/OCc2ccc(C3CCCCC3)c(C(F)(F)F)c2)ccc1CN1CC(C(=O)O)C1 [Siponimod],Difference,[1]; [3],−0.01
same,Cholesterol-free,[1]; [4],0.9324
same,Complete,[1]; [5],0.9251
same,Cholesterol-free media + simvastatin (0.04 μM),[2]; [6],1.121
same,Complete Media,[2]; [7],0.7701
same,Difference,[2]; [8],−0.35
CCC(=O)NS(=O)(=O)c1ccc(-c2c(-c3ccccc3)noc2C)cc1 [Parecoxib],Difference,[1]; [3],−0.20
same,Cholesterol-free,[1]; [9],0.9171
same,Complete,"[1]; NCI-H292 cells, complete media",0.7131
same,Cholesterol-free media + simvastatin (0.04 μM),[2]; [10],0.9747
same,Complete Media,[2]; drug in complete media,0.7244
same,Difference,[2]; [8],−0.25
CC(C)N(CCCCOCC(=O)NS(C)(=O)=O)c1cnc(-c2ccccc2)c(-c2ccccc2)n1 [Selexipag],Cholesterol-free,[1]; [4],0.7206
same,Complete,[1]; [5],1.028
same,Difference,[1]; [11],0.31
same,Cholesterol-free media + simvastatin (0.04 μM),[2]; [12],0.9295
same,Complete Media,[2]; [13],1.013
same,Difference,[2]; [14],0.08
CC[C@]12CCCN3CCc4c(n(c5ccccc45)C(=O)C1)[C@@H]32 [Vinburnine],Cholesterol-free,[1]; [4],0.8229
same,Complete,[1]; [5],1.424
same,Difference,[1]; [11],0.60
same,Cholesterol-free media + simvastatin (0.04 μM),[2]; [15],1.049
same,Complete Media,[2]; [16],1.235
same,Difference,[2]; [14],0.19
CC1=C(/C=C/C(C)=C/C=C/C(C)=C/C=C/C=C(C)/C=C/C=C(C)/C=C/C2=C(C)CCCC2(C)C)C(C)(C)CCC1 [β-Carotene],Difference,"[1]; Complete minus Cholesterol-free, greater than 0 enhanced anti-cancer activity, about 0 neutral, below 0 antagonists",−0.67
same,Cholesterol-free,[1]; NCI-H292 cells in cholesterol-free media without statin,1.322
same,Complete,[1]; NCI-H292 cells in complete media,0.6506
same,Cholesterol-free media + simvastatin (0.04 μM),[2]; [6],0.923
same,Complete Media,[2]; [7],0.6081
same,Difference,[2]; [8],−0.31
CCOCC(O)COc1ccc(NC(=O)CC[S+](C)C)cc1.Cc1ccc(S(=O)(=O)[O-])cc1 (centres unmarked) [Suplatast (Tosilate)],Cholesterol-free,[1]; [4],0.9586
same,Complete,[1]; [5],1.127
same,Difference,[1]; [17],0.17
same,Cholesterol-free media + simvastatin (0.04 μM),[2]; [15],2.447
same,Difference,[2]; [18],−0.95
CC(=O)Oc1cc(C(F)(F)F)ccc1C(=O)O [Triflusal],Cholesterol-free,[1]; [4],1.019
same,Complete,[1]; [5],1.117
same,Difference,[1]; [11],0.10
same,Cholesterol-free media + simvastatin (0.04 μM),[2]; [15],1.154
same,Complete Media,[2]; [16],1.083
same,Difference,[2]; [8],−0.07
CCCC[C@H](C)C[C@H](O)/C=C/[C@H]1[C@H](O)CC(=O)[C@@H]1CCCC/C=C/C(=O)O [Limaprost],Cholesterol-free,[1]; [9],1.4
same,Complete,"[1]; NCI-H292 cells, complete media",0.949
same,Difference,[1]; [19],−0.45
same,Cholesterol-free media + simvastatin (0.04 μM),[2]; [10],1.214
same,Complete Media,[2]; drug in complete media,0.9724
same,Difference,[2]; [8],−0.24
CCN(CC)CCOC(=O)C1(C2CCCCC2)CCCCC1 [Dicyclomine (hydrochloride)],Cholesterol-free,[1]; [9],1.211
same,Complete,"[1]; NCI-H292 cells, complete media",0.8491
same,Difference,[1]; [19],−0.36
same,Cholesterol-free media + simvastatin (0.04 μM),[2]; [15],0.9961
same,Complete Media,[2]; [16],0.9187
same,Difference,[2]; [8],−0.08
CCC(=O)O[C@H](CC(=O)O)C[N+](C)(C)C [Levocarnitine propionate (hydrochloride)],Difference,[1]; [3],−0.30
same,Cholesterol-free,[1]; [9],1.256
same,Complete,"[1]; NCI-H292 cells, complete media",0.9514
same,Cholesterol-free media + simvastatin (0.04 μM),[2]; [20],1.106
same,Complete Media,[2]; [21],1.114
same,Difference,"[2]; complete media minus cholesterol-free media + simvastatin (0.04 μM), >0 enhanced anti-cancer activity, about 0 neutral, <0 antagonist",0.01
Cl.Cl.OCCN1CCN(CCC=C2c3ccccc3Sc3ccc(C(F)(F)F)cc32)CC1 (mixture of isomers) [Flupentixol dihydrochloride],Cholesterol-free,[1]; [9],1.101
same,Complete,"[1]; NCI-H292 cells, complete media",0.7804
same,Difference,[1]; [19],−0.32
same,Cholesterol-free media + simvastatin (0.04 μM),[2]; [15],0.5255
same,Complete Media,[2]; [16],1.084
same,Difference,[2]; [14],0.56
C=C1C[C@H]2[C@@H]3CCC4=CC(=O)CC[C@@H]4[C@H]3CC[C@]2(C)[C@@]1(OC(C)=O)C(C)=O [Nestoron],Cholesterol-free,[1]; [9],1.481
same,Complete,"[1]; NCI-H292 cells, complete media",1.095
same,Difference,[1]; [17],−0.39
same,Cholesterol-free media + simvastatin (0.04 μM),[2]; [20],0.9628
same,Complete Media,[2]; [21],0.9132
same,Difference,[2]; [18],−0.05
COc1cc2nccc(Oc3ccc(NC(=O)NC4CC4)c(Cl)c3)c2cc1C(N)=O [Lenvatinib],Difference,[1]; [22],−0.11
same,Cholesterol-free,[1]; [23],1.182
same,Complete,[1]; [24],1.077
same,Cholesterol-free media + simvastatin (0.04 μM),[2]; [10],1.178
same,Complete Media,[2]; drug in complete media,1.01
same,Difference,[2]; [8],−0.17
CC(C(=O)O)c1cccc(C(=O)c2ccccc2)c1 (centres unmarked) [Ketoprofen],Cholesterol-free,[1]; [9],1.284
same,Complete,"[1]; NCI-H292 cells, complete media",0.8938
same,Difference,[1]; [19],−0.39
same,Cholesterol-free media + simvastatin (0.04 μM),[2]; [12],0.9565
same,Complete Media,[2]; [13],0.9752
same,Difference,[2]; [14],0.02
O=c1[nH]cc(F)c(=O)[nH]1 [5-Fluorouracil],Difference,[1]; [22],−0.13
same,Cholesterol-free,[1]; [23],0.4728
same,Complete,[1]; [24],0.3401
same,Cholesterol-free media + simvastatin (0.04 μM),[2]; [6],0.7934
same,Complete Media,[2]; [7],0.5204
same,Difference,[2]; [8],−0.27
